Publication PMC10484922, “Discovery of a selective and biologically active low-molecular weight antagonist of human interleukin-1β” (Nature Communications, 2023)
“And” between values parts separate entries of the source, which are not always exact repeats. Identical values can stand only once. Like-named read-outs stand apart in the source and are kept apart here.

Assays:
[1] = tested on: normal human dermal fibroblasts stimulated with hIL-1α; assay: Human fibroblast IL-6 release assay, hIL-1α stimulated; type: cell-based; parameters: IL-1alpha (mean, SD): mean readout (IL-6 release): unit not given here; conditions: for Mean OD (OD 450nm) / IL-1alpha (mean, SD): mean readout (IL-6 release): Figure 3c; for Mean OD (OD 450nm): compound 500 nM; for IL-1alpha (mean, SD): mean readout (IL-6 release): compound @ 50uM
Experimental: (§1) We used HEK-Blue™ IL-1β cells that respond specifically to IL-1 (# hkb-il1b, InvivoGen). These cells can detect IL-1α and IL-1β, as these cytokines bind to the same receptor, IL-1R1. They express a Seap reporter gene under the control of the IFN-β minimal promoter fused to five NF-kappaB and five AP-1 binding sites. Thirty microliters (300,000 cells/ml) per well of a 384-well plate were plated overnight. Cells were then stimulated with graded concentrations of cytokines (hIL-1α or hIL-1β) in the absence or presence of canakinumab (Ilaris®, ILARI LYVI 150MG 22GLW.012, batch U003 0409)[22], anakinra (Kineret®, 100 mg/0.67 ml injectable solution, Sobi)[23], or compound (S)-2 (compounds were pre-mixed for 1 h with the cytokine prior to addition to cells) and further incubated overnight before assessment of Seap activity.
Normal human dermal fibroblasts (NHDF) from Clonetics^TM (LONZA, Cat # CC-2509 (NHDF-Neo), Lot # 0000234242, used at passage ≤14) were seeded at a density of 5000 cells/well in 100 μL of culture medium using 96-well plates (flat bottom, TCT). Treatment with cytokines/compounds was performed as described above. Cells were incubated for another 6 h and were subsequently spun down (320g/3 min). IL-6 was measured in the supernatant by ELISA (BioLegend, # 430503) or HTRF (Cisbio, #62HIL06PEH).

[2] = tested on: HEK-Blue IL-1β cells stimulated with hIL-1β; assay: HEK293 reporter gene assay, hIL-1β as trigger; type: cell-based, human; parameters: RGA HEK293, average / RGA HEK293, curve fit: unit not given here; conditions: for RGA HEK293, average / RGA HEK293, curve fit: per experiment
Experimental: as §1

[3] = tested on: HEK-Blue IL-1β cells stimulated with hIL-1α; assay: HEK293 reporter gene assay, hIL-1α as trigger; type: cell-based, human
Experimental: as §1

[4] = tested on: normal human dermal fibroblasts stimulated with hIL-1β; assay: Human fibroblast IL-6 release assay, hIL-1β stimulated; type: cell-based; parameters: IL-6, average / inhibition, replicates of EXP1, EXP2, EXP3 / inhibition, Mean / IL-1beta (mean, SD): mean readout (IL-6 release): unit not given here; conditions: for inhibition, Mean / inhibition, replicates of EXP1, EXP2, EXP3: Figure 3b; for Mean OD (OD 450nm) / IL-1beta (mean, SD): mean readout (IL-6 release): Figure 3c; for Mean OD (OD 450nm): compound 500 nM; for IL-1beta (mean, SD): mean readout (IL-6 release): compound @ 50uM
Summary of the method: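 Normal human dermal fibroblasts (neonatal, passage ≤14) treated with graded hIL-1α or hIL-1β that had been premixed 1 h with compound, then incubated 6 h. Secreted IL-6 in supernatant quantified by ELISA or HTRF.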

IL-1β = IL-1β (Homo sapiens, UniProt P01584); assay: SPR binding of compounds to immobilized hIL-1β; parameters: Mature hIL-1β was expressed in Escherichia coli; made in house; host or cells: Escherichia coli BL21 (DE3), pET17b
Experimental: All SPR experiments were performed with an SPR-32 instrument (Bruker Daltonics SPR, Hamburg, Germany). SPR chips were from XanTec bioanalytics GmbH (Düsseldorf, Germany).
C-terminally avi-tagged hIL-1β protein was immobilized onto a SAHC200M chip with a neutravidin-coated surface. Immobilization was performed with a protein injection of 0.02 mg/ml IL-1β diluted in PBS pH 7.5 (Gibco 70011-036, 10×), 0.05% Tween-20 for 5 min at 10 μl/min. The running buffer for binding studies of compounds was PBS pH 7.4, 0.05% Tween-20, and 2% DMSO. For the correction of small DMSO variations between samples, injections of 6 solvent samples ranging from 1% to 3% DMSO were run. Compound measurements were performed in MICK mode (multiple injection cycles kinetic) with a dose–response of 10 concentrations. Dissociation constants for compounds (KD) were obtained by determining steady-state fit that followed the 1:1 Langmuir model.
Data analysis was performed with the Sierra Analyzer 3.4.0 software from Bruker. Signal intensities were corrected for nonspecific binding to the surface by subtracting intensities from the reference surface from those of the hIL-1β surfaces (first reference subtraction) and by subtracting the buffer injection (second reference subtraction). KD values were carried out by determining a reporting point close to the end of the injection, used for steady-state fit, in addition to a kinetic fit delivering kon- and koff-values; both fitting models followed the 1:1 Langmuir equation.
Supplementary Figure 3. De termination of binding af fi nit ie s for se l ec ted ana l ogues of 1 by SPR. a - d Gr ap hs of exemplary experimen ts are given , where the sat urat ion of hI L-1b immobil ized on a chip was monitored at various concentrations of compound 3, 12, 10, and 11, respectively. Th e saturati on reached at equ ilibri um (insert) was plo tt ed versus the admini stered concentration and the equ ilibri um bin ding constant was derived from a non-li near lea st square fitting routine. e equ ilibri um and f kinetic bin ding of (S)-2 to IL-1b (kon = 1. 15 x 105 M-1 s-1 and koff = 0. 12 s-1).

[5] = (S)-2 concentration 0.05 (unit not given)
[6] = (S)-2 concentration 0.4 (unit not given)
[7] = (S)-2 concentration 1 (unit not given)
[8] = (S)-2 concentration 4 (unit not given)
[9] = (S)-2 concentration 11 (unit not given)
[10] = (S)-2 concentration 33 (unit not given)
[11] = (S)-2 concentration 100 (unit not given)

IL-1β, sequence (P01584 117-269): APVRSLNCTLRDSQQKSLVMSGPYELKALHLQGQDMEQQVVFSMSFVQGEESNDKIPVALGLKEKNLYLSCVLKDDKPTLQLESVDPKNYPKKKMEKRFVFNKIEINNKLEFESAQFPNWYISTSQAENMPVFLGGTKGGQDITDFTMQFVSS

## Cc1ccc2c(c1)NC(=O)[C@@]2(c1cn[nH]c1)c1cc(-c2ccc(C(=O)O)cc2C(=O)O)ccc1O [Compound (S)-2]
[1]
  effect on hIL-1α driven IL-6 release: had no effect on hIL-1α driven IL-6 release
[1]; hu IL-1A 0 pg/mL
  Mean OD (OD 450nm): 0.031
[1]; hu IL-1A 40 pg/mL
  Mean OD (OD 450nm): 0.372
[1]; hu IL-1A 80 pg/mL
  Mean OD (OD 450nm): 0.573
[1]; hu IL-1A 120 pg/mL
  Mean OD (OD 450nm): 0.693
[1]; hu IL-1A 160 pg/mL
  Mean OD (OD 450nm): 0.736
[1]; hu IL-1A 200 pg/mL
  Mean OD (OD 450nm): 0.751
[1]; hu IL-1a 0 pg/mL
  IL-1alpha (mean, SD): mean readout (IL-6 release): 0
[1]; hu IL-1a 40 pg/mL
  IL-1alpha (mean, SD): mean readout (IL-6 release): 1994.8
[1]; hu IL-1a 80 pg/mL
  IL-1alpha (mean, SD): mean readout (IL-6 release): 3486.9
[1]; hu IL-1a 120 pg/mL
  IL-1alpha (mean, SD): mean readout (IL-6 release): 4374.4
[1]; hu IL-1a 160 pg/mL
  IL-1alpha (mean, SD): mean readout (IL-6 release): 4691.2
[1]; hu IL-1a 200 pg/mL
  IL-1alpha (mean, SD): mean readout (IL-6 release): 4802.2
[2]
  reporter activity induced by hIL-1β: efficiently inhibited the reporter activity induced by hIL-1β
[2]; 3.125 uM
  RGA HEK293, average: 29.4705 and 28.9635 and 25.1151 and 32.9049 and 27.4138 and 39.0499 and 38.2996 and 37.0235
  RGA HEK293, curve fit: 30.4654 and 27.1823 and 20.8299 and 28.629 and 26.4966 and 33.5898 and 33.5814 and 32.8647
[2]; 6.25 uM
  RGA HEK293, average: 54.0943 and 50.2167 and 45.7315 and 52.6564 and 46.7509 and 54.9517 and 53.8737 and 52.9197
  RGA HEK293, curve fit: 53.4932 and 49.1303 and 45.443 and 53.6627 and 46.4685 and 55.6955 and 53.7771 and 53.2389
[2]; 12.5 uM
  RGA HEK293, average: 72.3524 and 70.9823 and 68.0128 and 77.9349 and 67.4822 and 74.7182 and 71.0369 and 70.438
  RGA HEK293, curve fit: 72.9412 and 71.3657 and 68.2903 and 76.9195 and 67.593 and 75.1363 and 72.2128 and 71.5012
[2]; 25 uM
  RGA HEK293, average: 87.2975 and 85.2654 and 82.5363 and 87.9606 and 82.8729 and 86.3527 and 84.3067 and 83.9822
  RGA HEK293, curve fit: 85.8483 and 86.5666 and 83.9461 and 90.5811 and 83.387 and 87.7879 and 85.1743 and 84.4134
[2]; 50 uM
  RGA HEK293, average: 94.5457 and 94.2398 and 91.9589 and 95.03 and 93.0282 and 93.3172 and 89.9086 and 89.6999
  RGA HEK293, curve fit: 93.0784 and 94.3616 and 92.5512 and 96.5403 and 92.3805 and 94.467 and 92.6851 and 92.0672
[2]; 100 uM
  RGA HEK293, average: 97.772 and 97.6887 and 95.147 and 97.9006 and 96.9482 and 94.6055 and 95.59 and 95.4988
  RGA HEK293, curve fit: 96.7406 and 97.7627 and 96.7045 and 98.7877 and 96.7132 and 97.5984 and 96.5496 and 96.1302
[2]; Homo sapiens, hIL-1β, read-out: RGA HEK293 IC50
  IC50: 5.3 ± 0.3 µM
[2]; Homo sapiens, source data, read-out: RGA HEK293 IC50, individual experiments
  IC50: 4.15 µM
[2]; source data, read-out: RGA HEK293 IC50, individual experiments
  IC50: 6.4 µM and 5.37 µM and 5.67 µM and 6.98 µM and 4.84 µM and 5.05 µM and 4.72 µM
[3]
  reporter activity with hIL-1α as trigger: ineffective
[4]
  block of hIL-1β driven IL-6 release: could inhibit the response to hIL-1β
[4]; [5]
  inhibition, Mean: 11.8111
  inhibition, replicates of EXP1, EXP2, EXP3: 1.099 and 7.654 and 32.9874 and 11.239 and 6.325 and 15.536 and -5.489 and 15.493 and 21.4551
[4]; (S)-2 concentration 0.1 (unit not given)
  inhibition, replicates of EXP1, EXP2, EXP3: 18.345 and 33.8012 and 24.896 and 0.607 and 18.6036 and 23.695 and -10.879 and 23.6096
[4]; [6]
  inhibition, Mean: 16.1795
  inhibition, replicates of EXP1, EXP2, EXP3: 6.922 and -13.568 and 28.7773 and 15.933 and -2.853 and 20.6147 and 21.633 and -16.264 and 22.2291
[4]; [7]
  inhibition, Mean: 20.6552
  inhibition, replicates of EXP1, EXP2, EXP3: 28.445 and 6.394 and 37.2847 and 8.462 and 8.741 and 33.0478 and 30.776 and 11.643 and 21.1029
[4]; [8]
  inhibition, Mean: 41.6476
  inhibition, replicates of EXP1, EXP2, EXP3: 30.652 and 40.964 and 60.1425 and 37.001 and 32.643 and 49.8155 and 34.125 and 37.671 and 51.8132
[4]; [9]
  inhibition, Mean: 62.727
  inhibition, replicates of EXP1, EXP2, EXP3: 59.128 and 61.883 and 67.9669 and 57.955 and 65.648 and 69.7834 and 54.055 and 63.991 and 64.1355
[4]; [10]
  inhibition, Mean: 85.133
  inhibition, replicates of EXP1, EXP2, EXP3: 83.359 and 83.395 and 85.1881 and 82.704 and 84.749 and 90.3418 and 80.717 and 88.643 and 87.1001
[4]; [11]
  inhibition, Mean: 92.537
  inhibition, replicates of EXP1, EXP2, EXP3: 91.3 and 94.175 and 93.9868 and 93.148 and 93.985 and 90.8655 and 91.665 and 91.77 and 91.9373
[4]; hu IL-1b 0 pg/mL
  Mean OD (OD 450nm): 0.033
  IL-1beta (mean, SD): mean readout (IL-6 release): 0
[4]; hu IL-1b 40 pg/mL
  Mean OD (OD 450nm): 0.067
  IL-1beta (mean, SD): mean readout (IL-6 release): 0
[4]; hu IL-1b 80 pg/mL
  Mean OD (OD 450nm): 0.219
  IL-1beta (mean, SD): mean readout (IL-6 release): 866.8
[4]; hu IL-1b 120 pg/mL
  Mean OD (OD 450nm): 0.313
  IL-1beta (mean, SD): mean readout (IL-6 release): 1562
[4]; hu IL-1b 160 pg/mL
  Mean OD (OD 450nm): 0.45
  IL-1beta (mean, SD): mean readout (IL-6 release): 2574.8
[4]; hu IL-1b 200 pg/mL
  Mean OD (OD 450nm): 0.463
  IL-1beta (mean, SD): mean readout (IL-6 release): 2669.4
[4]; Homo sapiens, Fibroblast, 6 h, human dermal fibroblasts, hIL-1β, 6 h, read-out: IL-6 release IC50
  IC50: 7.9 ± 2 µM
[4]; human dermal fibroblasts, hIL-1β, 6 h
  IL-6 release IC50: single digit micromolar range
[4]; source data, read-out: IL-6 IC50, individual experiments
  IC50: 18.8 µM and 26.2 µM and 7.43 µM and 6.22 µM and 5.77 µM and 5.73 µM and 4.59 µM and 7.91 µM and 8.11 µM and 5.61 µM and 6.38 µM
IL-1β; kinetic fit
  koff: 0.12 s⁻¹
  kon: 120000 M⁻¹ s⁻¹
IL-1β; source data, read-out: SPR Kd, Mean
  Kd: 1.1 µM
IL-1β; source data, read-out: SPR Kd, individual experiments (Exp1-5)
  Kd: 1.1 µM (2×) and 1 µM
IL-1β; steady-state fit, 1:1 Langmuir, read-out: SPR KD
  Kd: 1.1 µM
